Experiments:
OATP1B3 = OATP1B3 (Homo sapiens (Human), UniProt Q9NPD5); assay: in vitro inhibition of OATP1B3; format: in vitro ADME
CFTR = assay: COPD PoC study (study 2): sweat chloride; format: in vivo, human; details: Day 29, 300 mg bid 28 days, 90% CI −11.6, 1.25, p-value=0.091
Procedure: (§1) Patients were randomized and stratified by smoking status (former vs current smokers). The double-blind placebo-controlled treatment period was 28 days (Day 1 to Day 28) and included visits on Days 1, 14 and 28. Eligible patients were randomized in a 2:1 ratio to receive 300 mg b.i.d. of Compound A or matching placebo for 28 consecutive days. Of note, the first 4 patients enrolled randomized in this study received 450 mg b.i.d. of Compound A or placebo, prior to an amendment reducing the dose and thereafter the dose was reduced to 300 mg b.i.d. of Compound A. The single-blind placebo-controlled follow-up period was 28 days. The follow-up period included a visit on Day 29 for key primary and secondary objective efficacy assessments, weekly follow-up contact via telephone, and an End-of-Study (EOS) visit on Day 56.

[1] = test system: Pseudomonas aeruginosa Biotype 2 - dry; assay: Phase II study in COPD patients: sputum microbiology, Pseudomonas aeruginosa Biotype 2 - dry; format: in vivo
Procedure: as §1
Spontaneous sputum was collected from patients and used to quantify colony forming units (CFUs) as a potential efficacy marker. The collected sputum samples were cultured for the following specific bacteria: Haemophilus parainfluenza, Haemophilus influenza, Pseudomonas aeruginosa, Moraxella, and Streptococcus pneumonia. In the event of bacterial growth for one or more of the above five pathogens, then the test result was reported, including the quantitative growth. In order to be included in the sputum analysis, a patient must have provided a sufficient sputum sample at baseline and at least one other visit (Day 14, Day 29 or EOS).
A decrease in airway bacterial colonization as detected in the sputum is considered improvement. In Table 4, the frequency (n, %) of patients was reported by treatment with Compound A and type of bacteria. Within each treatment group, the percentage was calculated as number of patients who were colonized with bacteria divided with total number of patients who produced a sputum sample at that time point.

CYP3A4/5 = assay: Time dependent inhibition and induction of CYP3A4/5; format: in vitro ADME
UGT2B7 = UGT2B7 (Homo sapiens (Human), UniProt P16662); assay: in vitro inhibition of UGT2B7; format: in vitro ADME
COPD patients = assay: Phase II study of Compound A in COPD patients: fibrinogen levels in blood; format: in vivo, human; parameters: fibrinogen change from baseline, mean / fibrinogen change from baseline, minimum / fibrinogen change from baseline, median / fibrinogen change from baseline, maximum: unit not given here; details: for fibrinogen change from baseline, maximum / fibrinogen change from baseline, mean / fibrinogen change from baseline, median / fibrinogen change from baseline, minimum: value in brackets
Procedure: as §1
Blood samples were collected from patients for the analysis of fibrinogen.

[2] = BAS (baseline) visit, 300 mg bid group
[3] = SCR (screening) visit, 300 mg bid group

Sequence of UGT2B7 (P16662 24-529): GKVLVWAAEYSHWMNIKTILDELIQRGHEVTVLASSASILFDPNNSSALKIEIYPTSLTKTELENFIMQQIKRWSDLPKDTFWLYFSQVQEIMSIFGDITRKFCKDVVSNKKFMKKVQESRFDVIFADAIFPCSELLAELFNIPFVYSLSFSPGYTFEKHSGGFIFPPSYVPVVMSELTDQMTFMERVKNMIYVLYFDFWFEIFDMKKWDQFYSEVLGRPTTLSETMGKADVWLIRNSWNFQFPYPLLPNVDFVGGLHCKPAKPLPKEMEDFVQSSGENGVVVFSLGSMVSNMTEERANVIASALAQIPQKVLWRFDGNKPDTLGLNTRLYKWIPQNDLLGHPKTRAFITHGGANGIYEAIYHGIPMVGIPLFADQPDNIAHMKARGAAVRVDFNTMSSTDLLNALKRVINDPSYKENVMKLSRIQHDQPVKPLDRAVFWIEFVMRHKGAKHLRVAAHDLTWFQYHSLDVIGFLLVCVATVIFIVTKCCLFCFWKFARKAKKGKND
Sequence of OATP1B3 (Q9NPD5 whole entry): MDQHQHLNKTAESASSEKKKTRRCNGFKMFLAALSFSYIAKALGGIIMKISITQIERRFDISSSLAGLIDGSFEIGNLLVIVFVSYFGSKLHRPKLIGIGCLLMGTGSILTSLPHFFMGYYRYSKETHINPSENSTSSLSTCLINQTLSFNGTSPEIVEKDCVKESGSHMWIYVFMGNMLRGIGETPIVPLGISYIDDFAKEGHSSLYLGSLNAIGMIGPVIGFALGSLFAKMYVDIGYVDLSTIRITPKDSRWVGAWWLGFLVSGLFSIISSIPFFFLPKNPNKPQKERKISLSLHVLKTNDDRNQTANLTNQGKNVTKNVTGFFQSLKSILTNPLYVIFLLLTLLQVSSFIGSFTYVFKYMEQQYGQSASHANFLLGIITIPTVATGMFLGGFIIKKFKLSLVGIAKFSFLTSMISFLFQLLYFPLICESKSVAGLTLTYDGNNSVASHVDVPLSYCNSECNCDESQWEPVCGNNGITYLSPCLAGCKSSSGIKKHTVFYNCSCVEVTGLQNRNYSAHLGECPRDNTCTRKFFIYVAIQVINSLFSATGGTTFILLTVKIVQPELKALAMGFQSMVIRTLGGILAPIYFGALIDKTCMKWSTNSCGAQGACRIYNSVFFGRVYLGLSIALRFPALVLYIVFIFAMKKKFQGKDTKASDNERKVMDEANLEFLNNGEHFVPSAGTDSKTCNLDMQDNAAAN

COc1nc(C(=O)NC[C@](C)(O)C(F)(F)F)c(N)cc1C(F)(F)F (single isomer, unassigned) [Example 5]
inhibition of OATP1B3 (OATP1B3): Weak in vitro inhibition | estimated difference (Compound A - placebo) in mean change from baseline sweat chloride (CFTR): -5.19 mmol/L | patients colonized, n (%) ([1]; Baseline): 2 (4.4) n (%) | patients colonized, n (%) ([1]; D14): 4 (9.3) n (%) | patients colonized, n (%) ([1]; D29): 2 (4.8) n (%) | patients colonized, n (%) ([1]; EOS): 1 (2.4) n (%) | effect on CYP3A4/5 (CYP3A4/5): time dependent inhibitor and inducer | inhibition of UGT2B7 (UGT2B7): Weak in vitro inhibition | fibrinogen level, maximum (COPD patients; [2]): 4.9 g/L | fibrinogen level, mean (COPD patients; [2]): 3.28 g/L | fibrinogen level, median (COPD patients; [2]): 3.16 g/L | fibrinogen level, minimum (COPD patients; [2]): 2 g/L | fibrinogen level, maximum (COPD patients; D14, 300 mg bid): 4.4 g/L | fibrinogen level, mean (COPD patients; D14, 300 mg bid): 3.1 g/L | fibrinogen level, median (COPD patients; D14, 300 mg bid): 3.03 g/L | fibrinogen level, minimum (COPD patients; D14, 300 mg bid): 1.6 g/L | fibrinogen change from baseline, maximum (COPD patients; D14, 300 mg bid): 1.7 | fibrinogen change from baseline, mean (COPD patients; D14, 300 mg bid): −0.18 | fibrinogen change from baseline, median (COPD patients; D14, 300 mg bid): −0.20 | fibrinogen change from baseline, minimum (COPD patients; D14, 300 mg bid): −1.7 | fibrinogen level, maximum (COPD patients; D29, 300 mg bid): 4.4 g/L | fibrinogen level, mean (COPD patients; D29, 300 mg bid): 3.02 g/L | fibrinogen level, median (COPD patients; D29, 300 mg bid): 2.98 g/L | fibrinogen level, minimum (COPD patients; D29, 300 mg bid): 1.6 g/L | fibrinogen change from baseline, maximum (COPD patients; D29, 300 mg bid): 1.3 | fibrinogen change from baseline, mean (COPD patients; D29, 300 mg bid): −0.24 | fibrinogen change from baseline, median (COPD patients; D29, 300 mg bid): −0.17 | fibrinogen change from baseline, minimum (COPD patients; D29, 300 mg bid): −1.8 | mean change from baseline over time for fibrinogen (FIG. 1) (COPD patients; Day 14 and 29 during treatment period): decrease of fibrinogen levels | estimated difference (Compound A to placebo) in mean change from baseline fibrinogen (COPD patients; Day 29, 300 mg bid for 28 days, 90% CI −0.65, −0.14, p-value=0.006): -0.40 g/L | Fibrinogen mean improvement over placebo (COPD patients; Day 29, p-value=0.006): 40 mg/dL | fibrinogen level, mean (COPD patients; EOS (Day 56, 28 days after last dose), 300 mg bid): 3.24 g/L | fibrinogen level, maximum (COPD patients; EOS, 300 mg bid): 6.6 g/L | fibrinogen level, median (COPD patients; EOS, 300 mg bid): 3.16 g/L | fibrinogen level, minimum (COPD patients; EOS, 300 mg bid): 2 g/L | fibrinogen change from baseline, maximum (COPD patients; EOS, 300 mg bid): 3.0 | fibrinogen change from baseline, mean (COPD patients; EOS, 300 mg bid): −0.03 | fibrinogen change from baseline, median (COPD patients; EOS, 300 mg bid): −0.11 | fibrinogen change from baseline, minimum (COPD patients; EOS, 300 mg bid): −1.7 | fibrinogen level, maximum (COPD patients; [3]): 4.9 g/L | fibrinogen level, mean (COPD patients; [3]): 3.03 g/L | fibrinogen level, median (COPD patients; [3]): 3 g/L | fibrinogen level, minimum (COPD patients; [3]): 1.1 g/L
